# Assay results as given in patent US7009045B2 (priority 2000, dated 2006).
# Values joined by “and” are separate entries in the source; they are usually repeats but may differ in a detail not shown here. Equal entries are not always repeated.
# Tests used:
# C. famata = type: cell-based, Candida famata
# [1] = test system: Candida famata regulatory mutants able to overproduce riboflavin; experiment: Sensitivity to Co^+2 ions, solid Burkholder medium (Table 16); type: cell-based; design: key: +++: strong growth; ++: weak growth; +: very weak growth; —: absence of growth
# Protocol: (§1) The sensitivity of the regulatory mutants of the yeast C. famata which overproduce riboflavin in iron rich medium probably due to defects in genes regulating repression (repression mutants), to different ions of heavy metals was studied. For this, the analyzed strains were streaked on the YPD plates and then were replica-plated on Burkholder synthetic medium containing leucine (40 μg/ml). The C.famata mutants L20105-40-1-11, L20105-40-1-17, L20105-3-2-1, L20105-3-2-8 and L20105-3-2-12 (all contained leu2 marker) accumulated 80–100 μg riboflavin/ml. The mutants #75, 4-48, 2-5 produced much higher amounts of riboflavin (200–250 μg/ml) but were prototrophs for leucine synthesis. Strain #75 was characterized by retarded growth comparing with other mutants. The strains VKM Y-9 (wild type) and L20105 (leu2) were used as the control strains.
# [2] = test system: Candida famata regulatory mutants able to overproduce riboflavin; experiment: Sensitivity to copper ions, solid Burkholder medium (Table 12); type: cell-based; design: key: +++: strong growth; ++: weak growth; —: absence of growth; conditions: L20105-3-2-4
# [3] = test system: Candida famata regulatory mutants able to overproduce riboflavin; experiment: as above; type: cell-based; design: key: +++: strong growth; ++: weak growth; +: very weak growth; —: absence of growth
# Protocol: as §1
# Mutants overproducing lower amounts of riboflavin appeared to be more sensitive to CuSO4 (0.15 mM) than that of the strains producing higher amounts of riboflavin (inhibitory concentration 0.5 mM) (Table 12).
# [4] = test system: Candida famata regulatory mutants able to overproduce riboflavin; experiment: Sensitivity to K2Cr2O7, solid Burkholder medium with 0.3 M sucrose (Table 13); type: cell-based
# Protocol: as §1
# [5] = test system: Candida famata regulatory mutants able to overproduce riboflavin; experiment: Sensitivity to K2Cr2O7, solid Burkholder medium with 0.5% glycerol (Table 14); type: cell-based
# Protocol: as §1
# [6] = test system: Pichia guilliermondii wild type and regulatory mutants (rib81); experiment: Sensitivity after electroporation to K2Cr2O7, medium with 0.5% glycerol (Table 21); type: cell-based; conditions: Cr^+6 250–350 μM, 0.6 M KCl
# Excerpt: (§2) The possibility for positive selection of P. guilliermondii rib81 transformants unable to overproduce riboflavin in minimal medium was studied. For this, the toxicity of K2Cr2O7 (Cr^+6) was compared for the P. guilliermondii wild-type strain ATCC 9058 and regulatory mutants P. guilliermondii rib81 9-20 and 20-2. The cells were pregrown in liquid YPD to OD 1.5–2.0 (540 nm) and electroporated according to the protocol described (Example 34). Electroporated cells were washed three times with 10×volume of 0.6 M KCl and then the volume was adjusted to 1 ml. Then the cells were plated at 0.2 ml suspension per plate which contained 0.5% glycerol, 0.6 M KCl and K2Cr2O7 (50–1000 μM).
# (§3) The visual selection of the non-overproducing riboflavin transformants is rather arbitrary and uncertain. Therefore it was decided to develop the method for positive selection of the transformants using tentative differences in sensitivity to K2Cr2O7 of wild-type P. guilliermondii and the regulatory mutants rib81 9-20 and 20-2. After 6 days of cultivation in the medium with 0.5% glycerol, it was shown that K2Cr2O7 at 150–180 μM inhibited growth of regulatory mutant 9-20 more strongly than that of the wild strain (Table 21).
# [7] = test system: Pichia guilliermondii wild type and regulatory mutants (rib81); experiment: Sensitivity after electroporation to K2Cr2O7, Burkholder medium with 0.3 M sucrose (Table 22); type: cell-based; conditions: Cr^+6 100 to 600 μM
# [8] = test system: Pichia guilliermondii wild type and regulatory mutants (rib81); experiment: Sensitivity after electroporation to K2Cr2O7, medium with 0.5% glycerol (Table 21); type: cell-based; design: key: +++: strong growth; ++: weak growth; —: absence of growth
# Excerpt: as §2, §3
# [9] = test system: Pichia guilliermondii wild type and regulatory mutants (rib81); experiment: Sensitivity after electroporation to K2Cr2O7, Burkholder medium with 0.3 M sucrose (Table 22); type: cell-based; design: key: +++: strong growth; ++: weak growth; +: very weak growth; —: absence of growth; conditions: K2Cr2O7 400 μM
smiles,measurement,setting,value
[Cl-].[Cl-].[Co+2] [CoCl2],concentration non-toxic for yeast growth that stimulates riboflavin synthesis,C. famata,15 µg/mL
same,higher concentrations tested that inhibited plate growth,C. famata,50 µg/mL and 100 µg/mL
same,maximal subinhibitory concentration which stimulates flavinogenesis,C. famata,25 µg/mL
same,growth,"[1]; #2-5, Co^+2 3.75 μg/ml",+
same,growth,"[1]; #75, Co^+2 2.5 μg/ml",+
same,growth,"[1]; L20105-3-2-1, Co^+2 3.75 μg/ml",+
same,growth,"[1]; L20105-3-2-8, Co^+2 3.75 μg/ml",+
same,growth,"[1]; L20105-3-2-8, Co^+2 5.0 μg/ml",+
same,growth,"[1]; L20105-3-2-9, Co^+2 3.75 μg/ml",+
same,growth,"[1]; L20105-3-2-12, Co^+2 3.75 μg/ml",+
same,growth,"[1]; L20105-3-2-12, Co^+2 5.0 μg/ml",+
same,growth,"[1]; L20105-40-1-11, Co^+2 3.75 μg/ml",+
O=S(=O)([O-])[O-].[Cu+2] [CuSO4],growth,[2]; Cu^+2 0.3 mM,—
same,growth,[2]; Cu^+2 8 mM,—
same,growth,"[3]; #2-5, Cu^+2 0.45 mM",+
same,growth,"[3]; #4-48, Cu^+2 0.45 mM",+
same,growth,"[3]; #75, Cu^+2 0.45 mM",+
same,growth,"[3]; L20105 (leu2), Cu^+2 0.6 mM",+
same,growth,"[3]; L20105-3-2-4, Cu^+2 0.1 mM",+
same,growth,"[3]; L20105-3-2-8, Cu^+2 0.1 mM",+
same,growth,"[3]; L20105-3-2-12, Cu^+2 0.1 mM",+
[K+].[K+].[O]=[Cr](=[O])([O-])[O][Cr](=[O])(=[O])[O-] [K2Cr2O7],concentration inhibiting growth of strain #75,[4]; medium with 0.3 M sucrose,100 µM
same,concentration inhibiting growth of strains with higher riboflavin production,[4]; medium with 0.3 M sucrose,175 µM
same,concentration totally inhibiting growth of mutants with lower levels of riboflavin overproduction,[4]; medium with 0.3 M sucrose,125 µM
same,effect of subinhibitory concentrations on flavinogenesis of all tested strains,[4]; riboflavin overproducers and wild-type strains,stimulated flavinogenesis
same,concentration inhibiting growth of weaker overproducers,[5],50 µM
same,growth of wild-type strain P. guilliermondii ATCC 9058,[6],only slightly depressed
same,difference in sensitivity between regulatory mutants and the wild type,[7],no differences in sensitivity
same,growth,"[8]; #9-20 (leu2), K2Cr2O7 75 μM",+++
same,growth,"[8]; #9-20 (leu2), K2Cr2O7 100 μM",++
same,growth,"[8]; #9-20 (leu2), K2Cr2O7 150 μM",—
same,growth,"[8]; #9-20 (leu2), K2Cr2O7 185 μM",—
same,growth,"[8]; #9-20 (leu2), K2Cr2O7 240 μM",—
same,growth,"[8]; ATCC9058, K2Cr2O7 75 μM",+++
same,growth,"[8]; ATCC9058, K2Cr2O7 100 μM",+++
same,growth,"[8]; ATCC9058, K2Cr2O7 125 μM",+++
same,growth,"[8]; ATCC9058, K2Cr2O7 150 μM",+++
same,growth,"[8]; ATCC9058, K2Cr2O7 185 μM",++
same,growth,"[8]; ATCC9058, K2Cr2O7 240 μM",—
same,growth,[9]; #9-20 (leu2),+
same,growth,[9]; ATCC9058,+
